# Test results as given in US20100292214A1, “Compounds with Antiparasitic Activity, Applications thereof to the Treatment of Infectious Diseases Caused by Apicomplexans” (commissariat a l'Energie Atomique, priority 2007, published 2010).
# Where a name gives a salt, the structure may show the parent alone. Read-outs that look alike come from different tables or passages of the source.
# Columns and labels:
# [1] = system: asynchronous 3D7 chloroquine-sensitive P. falciparum infected red blood cells; test: Labeled hypoxanthine incorporation assay (in vitro anti-malarial activity); assay type: cell-based; conditions: Plasmodium falciparum, 3D7, Erythrocyte, read-out: IC50 assessed on Plasmodium Falciparum
# [2] = system: Toxoplasma gondii RH-β1 strain; test: microbe, parasite or virus in culture; assay type: cell-based; conditions: Toxoplasma gondii, read-out: IC50 assessed on Toxoplama Gondii
# [3] = 3D7 chloroquine-sensitive strain, infected RBC, 48 h contact, [3H]-hypoxanthine incorporation, two independent experiments in duplicates
SMILES,"IC50 [1, 3] [nM]",IC50 [2] [nM],IC50 [1] [nM]
"Cc1nc2ccccc2n1C1CCN(C(=O)OC[C@H](C)N(Cc2ccccc2)Cc2ccccc2)CC1 [Compound 15, (S)-2-(dibenzylamino)propyl 4-(2-methyl-1H-benzo[d]imidazol-1-yl)piperidine-1-carboxylate]",2420,3410,–
"C[C@@H](COC(=O)N1CCC(Nc2ccc(I)cc2)CC1)N(Cc1ccccc1)Cc1ccccc1 [Compound 85, (S)-2-(dibenzylamino)propyl 4-(4-iodophenylamino)piperidine-1-carboxylate]",–,7650,8090
"C[C@@H](COC(=O)N1CCC(n2c(=O)n(CC3CCCCC3)c3ccccc32)CC1)N(Cc1ccccc1)Cc1ccccc1 [Compound 72, (S)-2-(dibenzylamino)propyl 4-(1-(cyclohexylmethyl)-1,2-dihydro-2-oxobenzo[d]imidazol-3-yl)piperidine-1-carboxylate]",1030,1570,–
"O=C(OCCN(CCCc1ccccc1)Cc1ccccc1)N1CCC(n2c(=O)[nH]c3ccccc32)CC1 [Compound 120, 2-(benzyl(3-phenylpropyl)amino)ethyl 4-(2-oxo-2,3-dihydro-1H-benzo[d]imidazol-1-yl)piperidine-1-carboxylate hydrochloride]",3610,1700,–
"C[C@@H](COC(=O)N1CCC(N(c2ccccc2)S(=O)(=O)c2cccs2)CC1)N(Cc1ccccc1)Cc1ccccc1 [Compound 159, (S)-2-(dibenzylamino)propyl 4-(N-phenylthiophen-2-ylsulfonamido)piperidine-1-carboxylate]",861,1000,–
"O=C(OCC(c1ccccc1)c1ccccc1)N1CCC(n2c(=O)[nH]c3ccccc32)CC1 [Compound 43, 2,2-diphenylethyl 4-(1,2-dihydro-2-oxobenzo[d]imidazol-3-yl)piperidine-1-carboxylate]",8330,12000,–
"C[C@@H](COC(=O)N1CCC(n2c(=O)[nH]c3ccccc32)CC1)N(Cc1ccccc1)Cc1cccc(OCc2ccccc2)c1 [Compound 136, (S)-2-(benzyl(3-(benzyloxy)benzyl)amino)propyl 4-(2-oxo-2,3-dihydro-1H-benzo[d]imidazol-1-yl)piperidine-1-carboxylate hydrochloride]",1600,800,–
"C[C@@H](COC(=O)N1CCC(n2c(=O)n(S(=O)(=O)c3cccc4ccccc34)c3ccccc32)CC1)N(Cc1ccccc1)Cc1ccccc1 [Compound 61, (S)-2-(dibenzylamino)propyl 4-(3-(naphthalen-1-ylsulfonyl)-2-oxo-2,3-dihydro-1H-benzo[d]imidazol-1-yl)piperidine-1-carboxylate]",950,2300,–
"O=C(OCCCN(Cc1ccccc1)Cc1ccccc1)N1CCC(n2c(=O)[nH]c3ccccc32)CC1 [Compound 29, 3-(dibenzylamino)propyl 4-(1,2-dihydro-2-oxobenzo[d]imidazol-3-yl)piperidine-1-carboxylate]",3600,2500,–
"C[C@@H](COC(=O)N1CCC(N(C(=S)Nc2ccccc2)c2ccccc2)CC1)N(Cc1ccccc1)Cc1ccccc1 [Compound 165, (S)-2-(dibenzylamino)propyl 4-(1,3-diphenylthioureido)piperidine-1-carboxylate]",1250,3000,–
"C[C@@H](COC(=O)N1CCC(n2c(=O)n(S(=O)(=O)c3ccccc3)c3ccccc32)CC1)N(Cc1ccccc1)Cc1ccccc1 [Compound 54, (S)-2-(dibenzylamino)propyl 4-(2-oxo-3-phenylsulfonyl-2,3-dihydro-1H-benzo[d]imidazol-1-yl)piperidine-1-carboxylate]",230,1680,–
"O=C(OCCCN(Cc1ccccc1)Cc1cccc(Cl)c1)N1CCC(n2c(=O)[nH]c3ccccc32)CC1 [Compound 142, 3-(benzyl(3-chlorobenzyl)amino)propyl 4-(2-oxo-2,3-dihydro-1H-benzo[d]imidazol-1-yl)piperidine-1-carboxylate hydrochloride]",2920,1200,–
"O=c1[nH]c2ccccc2n1C1CCN(CCN(Cc2ccccc2)Cc2ccccc2)CC1 [Compound 52, 1-(1-(2-(dibenzylamino)ethyl)piperidin-4-yl)-1H-benzo[d]imidazol-2(3H)-one]",1570,2000,–
"COc1ccc(S(=O)(=O)n2c(=O)n(C3CCN(C(=O)OC[C@H](C)N(Cc4ccccc4)Cc4ccccc4)CC3)c3ccccc32)cc1 [Compound 57, (S)-2-(dibenzylamino)propyl 4-(3-(4-methoxyphenylsulfonyl)-2-oxo-2,3-dihydro-1H-benzo[d]imidazol-1-yl)piperidine-1-carboxylate]",410,1750,–
"C[C@@H](COC(=O)N1CCC(N(c2ccccc2)S(=O)(=O)c2cccc(C(F)(F)F)c2)CC1)N(Cc1ccccc1)Cc1ccccc1 [Compound 169, (S)-2-(dibenzylamino)propyl 4-(N-phenyl-3-(trifluoromethyl)phenylsulfonamido)piperidine-1-carboxylate]",553,3200,–
"CC(CCOC(=O)N1CCC(n2c(=O)[nH]c3ccccc32)CC1)N(Cc1ccccc1)Cc1ccccc1 (stereo not shown) [Compound 110, 3-(dibenzylamino)butyl 4-(1,2-dihydro-2-oxobenzo[d]imidazol-3-yl)piperidine-1-carboxylate]",1480,3600,–
"O=C(OCCCN(Cc1ccccc1)Cc1ccnc2ccccc12)N1CCC(n2c(=O)[nH]c3ccccc32)CC1 [Compound 145, 3-(benzyl(quinolin-4-ylmethyl)amino)propyl 4-(2-oxo-2,3-dihydro-1H-benzo[d]imidazol-1-yl)piperidine-1-carboxylate hydrochloride]",731,3300,–
"O=C(OC[C@@H](Cc1ccccc1)N(Cc1ccccc1)Cc1ccccc1)N1CCC(n2c(=O)[nH]c3ccccc32)CC1 [Compound 118, (R)-2-(dibenzylamino)-3-phenylpropyl 4-(1,2-dihydro-2-oxobenzo[d]imidazol-3-yl)piperidine-1-carboxylate]",1490,2900,–
"O=c1[nH]c2ccccc2n1C1CCN(CCCN(Cc2ccccc2)Cc2ccccc2)CC1 [Compound 49, 1-(1-(3-(dibenzylamino)propyl)piperidin-4-yl)-1H-benzo[d]imidazol-2(3H)-one]",1270,800,–
"C[C@@H](COC(=O)N1CCC(n2c(=O)n(S(=O)(=O)c3ccc(F)cc3)c3ccccc32)CC1)N(Cc1ccccc1)Cc1ccccc1 [Compound 56, (S)-2-(dibenzylamino)propyl 4-(3-(4-fluorophenylsulfonyl)-2-oxo-2,3-dihydro-1H-benzo[d]imidazol-1-yl)piperidine-1-carboxylate]",330,1500,–
"C[C@@H](COC(=O)N1CCC(c2c[nH]c3ccccc23)CC1)N(Cc1ccccc1)Cc1ccccc1 [Compound 44, (S)-2-(dibenzylamino)propyl 4-(1H-indol-3-yl)piperidine-1-carboxylate]",5210,1850,–
"C[C@@H](COC(=O)N1CCCC1Cn1c(=O)[nH]c2ccccc21)N(Cc1ccccc1)Cc1ccccc1 (stereo partly drawn) [Compound 23, (S)-2-(dibenzylamino)propyl 2-((1,2-dihydro-2-oxobenzo[d]imidazol-3-yl)methyl)pyrrolidine-1-carboxylate]",7270,3100,–
"O=C(OCCCN(Cc1ccccc1)Cc1cccc2ccccc12)N1CCC(n2c(=O)[nH]c3ccccc32)CC1 [Compound 144, 3-(benzyl(naphthalen-1-ylmethyl)amino)propyl 4-(2-oxo-2,3-dihydro-1H-benzo[d]imidazol-1-yl)piperidine-1-carboxylate hydrochloride]",3240,2700,–
"O=C(OCCCN(Cc1ccccc1)Cc1cccs1)N1CCC(n2c(=O)[nH]c3ccccc32)CC1 [Compound 141, 3-(benzyl(thiophen-2-ylmethyl)amino)propyl 4-(2-oxo-2,3-dihydro-1H-benzo[d]imidazol-1-yl)piperidine-1-carboxylate hydrochloride]",4170,4000,–
"C[C@@H](COC(=S)N1CCC(n2c(=O)[nH]c3ccccc32)CC1)N(Cc1ccccc1)Cc1ccccc1 [Compound 48, O—(S)-2-(dibenzylamino)propyl 4-(1,2-dihydro-2-oxobenzo[d]imidazol-3-yl)piperidine-1-carbothioate]",2950,1180,–
"C[C@@H](COC(=O)N1CCC(n2c(=O)[nH]c3ccccc32)CC1)N(Cc1ccccc1)Cc1cc2ccccc2c2ccccc12 [Compound 137, (S)-2-(benzyl(phenanthren-9-ylmethyl)amino)propyl 4-(2-oxo-2,3-dihydro-1H-benzo[d]imidazol-1-yl)piperidine-1-carboxylate hydrochloride]",1610,700,–
"CCOC(=O)CCCn1c(=O)n(C2CCN(C(=O)OC[C@H](C)N(Cc3ccccc3)Cc3ccccc3)CC2)c2ccccc21 [Compound 77, (S)-2-(dibenzylamino)propyl 4-(3-(4-ethoxy-4-oxobutyl)-2-oxo-2,3-dihydro-1H-benzo[d]imidazol-1-yl)piperidine-1-carboxylate]",600,5700,–
"O=C(OCCN(Cc1ccccc1)Cc1ccccc1OCc1ccccc1)N1CCC(n2c(=O)[nH]c3ccccc32)CC1 [Compound 99, 2-(benzyl(2-(benzyloxy)benzyl)amino)ethyl 4-(2-oxo-2,3-dihydro-1H-benzo[d]imidazol-1-yl)piperidine-1-carboxylate]",842,3500,–
"C[C@@H](COC(=O)N1CCC(CCn2c(=O)[nH]c3ccccc32)CC1)N(Cc1ccccc1)Cc1ccccc1 [Compound 20, (S)-2-(dibenzylamino)propyl 4-(2-(1,2-dihydro-2-oxobenzo[d]imidazol-3-yl)ethyl)piperidine-1-carboxylate]",6840,4200,–
